One series has as its system HCV replication. As to the kind of experiment: Anti-HCV activity in Ava-5 HCV subgenomic replicon cells (firefly luciferase assay). The series is classed as cell-based, Hepatitis C virus. As to conditions: Ava-5 cells. As to the method:
Ava-5 cells were treated with compounds 6a–i or the positive ribavirin for three days, and then analyzed through firefly luciferase assay. The concentration that inhibited 50% HCV replication (EC50), the concentration that inhibited 50% cell growth (CC50), and the selectivity index (SI: CC50/EC50) of compounds were determined with ribavirin as a positive control.
(§1) Compounds were dissolved in DMSO at 10 mM and then diluted in culture medium.
(§2) Ava5 cells, an engineered HCV subgenomic replicon cell line, were cultured in Dulbecco′s modified Eagle′s medium (DMEM) with 10% heat-inactivated fetal bovine serum, 1% antibiotic–antimycotic, and 1% non-essential amino acids. Ava5 cells were maintained in DMEM with 1 mg mL^−1 G418 to maintain the stable expression of replicon.

A short description of series [1]: Cytotoxicity in Ava-5 cells (XTT method). As to conditions: human, Ava5 cells (HCV subgenomic replicon cell line); Ava-5 cells, 72 h, XTT method; read-out: CC50 (concentration causing a 50% growth inhibition of uninfected ava-5 cells). The series is classed as cell-based. Here is the method: as §1, §2
(§3) For cytotoxicity tests, run in parallel with antiviral assays, plates at an initial density of (5 × 10^3 cells/well) were treated with or without serial dilutions of test compounds. Cell viability was determined after 72 h at 37 °C in a humidified CO2 (5%) atmosphere by the (2,3-bis[2-methyloxy-4-nitro-5-sulfophenyl]-2H-tetrazolium-5-carboxanilide) (XTT) method.

The next series deals with ava-5 cells. As to the kind of experiment: Cytotoxicity in Ava-5 cells (XTT method). The series is classed as cell-based. Here is the method:
as §1, §2, §3
(Formazan colour is commonly taken as a measure of viable cells.)

The subject of another series is HCV RNA. The experiment in a line: HCV RNA expression in Ava-5 cells by RT-qPCR. To be noted: Ava-5 cells, 2.5, 5, 10 and 20 μM, 3 days, normalized by GAPDH mRNA. The class given is cell-based, Hepatitis C virus. Here is the method: (§4) To further confirm the anti-HCV effect of compound 6b, we treated compound 6b at indicated concentrations in Ava-5 cells for 3 days. […] Treatment of 0.1% dimethyl sulfoxide (DMSO) served as a mock control on inhibition of HCV replication (Figure 3 and Figure 4).
Figure 3 Inhibition of HCV RNA expression in HCV-infected Ava-5 cells by 6b. Ava-5 cells were treated with 2.5, 5, 10 and 20 μM of 6b for 3 days. Total RNA was extracted and quantified HCV RNA levels by RT-qPCR. HCV RNA expression was normalized by cellular GAPDH mRNA. Treatment with 0.1% DMSO served as a mock control. The results are expressed as the means ± standard deviations (SD) of triplicate experiments.
A general note: Quantitative PCR measures a nucleic acid by following its amplification.

Series [2] has as its system HCV protein synthesis (NS5B). As to the kind of experiment: HCV protein synthesis in Ava-5 cells by western blotting. The class given is cell-based, Hepatitis C virus. To be noted: Ava-5 cells, 2.5, 5, 10 and 20 μM, 3 days. As to the method:
as §4
Ava5 cells were seeded in 24-well plates at a density of 5 × 10^4 cells per well overnight and treated with indicated reagent at proper concentrations for 3 days. Cells were washed with cold phosphate buffer saline (PBS) and lysed by radioimmunoprecipitation assay (RIPA) lysis buffer (50 mM Tris-HCl, pH 7.5, 150 mM NaCl, 1% Nonidet P-40, 2 mM EDTA, 1 mM EGTA, 1 mM NaVO3, 10 mM NaF, 1 mM DTT, 1 mM PMSF, 25 μg/mL aprotinin, and 25 μg/mL leupeptin) and stored at −20 °C. The protein concentration was determined by the Bradford method. Ten μg protein were separated by 10% SDS-PAGE and transferred onto a polyvinylidene difluorid (PVDF) membrane. The membrane was blocked with 5% non-fat dried milk and incubated with specific antibodies against NS5B (1:5000; Abcam Cambridge, MA, USA), glyceraldehyde-3-phosphate dehydrogenase (GAPDH) and anti-HO-1 (1:3000, Abcam Cambridge, MA, USA). Antibodies were diluted in 5% milk containing Tris-buffered saline (TBS) and 0.5% Tween. The blotting signal was developed using an ECL detection kit (PerkinElmer, Norwalk, CT, USA) and was counted by the software Quantity One (Bio-Rad, Foster, CA, USA). […]
For orientation: In western blotting, separated proteins are transferred to a membrane and probed.

Another series concerns HO-1 protein expression. As to the kind of experiment: HO-1 protein expression in Ava-5 cells by western blotting. As to conditions: 10 μM, 3 days, compared with DMSO-treated cells. The class given is cell-based. Here is the method:
To determine whether compounds 6b, 6e, 6h and 6i have impact on HO-1 protein expression in Ava-5 cells, we treated these compounds at 10 μM in Ava5 cells.
Ava5 cells were seeded in 24-well plates at a density of 5 × 10^4 cells per well overnight and treated with indicated reagent at proper concentrations for 3 days. Cells were washed with cold phosphate buffer saline (PBS) and lysed by radioimmunoprecipitation assay (RIPA) lysis buffer (50 mM Tris-HCl, pH 7.5, 150 mM NaCl, 1% Nonidet P-40, 2 mM EDTA, 1 mM EGTA, 1 mM NaVO3, 10 mM NaF, 1 mM DTT, 1 mM PMSF, 25 μg/mL aprotinin, and 25 μg/mL leupeptin) and stored at −20 °C. The protein concentration was determined by the Bradford method. Ten μg protein were separated by 10% SDS-PAGE and transferred onto a polyvinylidene difluorid (PVDF) membrane. The membrane was blocked with 5% non-fat dried milk and incubated with specific antibodies against NS5B (1:5000; Abcam Cambridge, MA, USA), glyceraldehyde-3-phosphate dehydrogenase (GAPDH) and anti-HO-1 (1:3000, Abcam Cambridge, MA, USA). Antibodies were diluted in 5% milk containing Tris-buffered saline (TBS) and 0.5% Tween. The blotting signal was developed using an ECL detection kit (PerkinElmer, Norwalk, CT, USA) and was counted by the software Quantity One (Bio-Rad, Foster, CA, USA).
Compound 6b, 6e, 6h and 6i induced HO-1 protein expression. Ava-5 cells were treated with compounds at 10 μM for 3 days. The cell lysate was subjected to western blotting with anti-HO-1 and anti-GAPDH antibodies.

Series [3] deals with Nrf2 / ARE transactivation. As to the kind of experiment: ARE transactivation, p3xARE-Luc reporter in Ava-5 cells (luciferase assay). The class given is cell-based. As to conditions: p3xARE-Luc-transfected Ava-5 cells, 1 and 10 μM, 3 days. The source says: Heme oxygenase 1 expression is regulated by the transcription factors Nrf2, Keap1, and Bach1 through the binding of ARE in its promoter region; therefore, we determined whether isoflavones-mediated HO-1 induction was dependent on ARE transactivation by treating p3xARE-Luc-transfected ava-5 cells with increasing concentrations of […] for 3 days.
Ava5 cells were transfected with the HO-1 promoter-driven luciferase plasmid, pHO-1-Luc, using the T-pro^TM transfection reagent (Ji-Feng Biotechnology Co., Ltd., Taipei, Taiwan) according to the manufacturer′s instructions. The transfected cells were treated with compounds at various concentrations for 3 days. Each transfection complex contains 0.1 μg pSEAP, a secreted alkaline phosphatase (SEAP) expression vector, for normalization luciferase activity serving as a transfection control. The luciferase activity assay was performed using the Bright-Glo Luciferase assay system (Promega) (Madison, WI, USA) according to the manufacturer′s instructions.
Figure 6 Isoflavones inhibited HCV replication by upregulating Nrf2 expression. Compound 6b, 6e, 6h and 6i stimulated ARE transactivation in Ava-5 cells. The antioxidant response reporter plasmid, p3xARE-Luc, was transfected into Ava-5 cells and then treated with isoflavones (1 and 10 μM) for 3 days. The relative induction of antioxidant activity was determined by luciferase assay. The activity of untreated Ava-5 cells was considered to be 1.

These results are taken from paper PMC6278568, “Discovery of 3-Amino-2-Hydroxypropoxyisoflavone Derivatives as Potential Anti-HCV Agents” (Molecules, 2018).

“Also recorded” adds a separate entry of the source.

In general, melting point refers to the temperature of the solid-liquid transition.

`COc1ccc(CCNCC(O)COc2ccc3c(=O)c(-c4ccc(OC)c(OC)c4)coc3c2)cc1OC` (stereo not drawn) [Compound 6b, 7-{3-[(3,4-Dimethoxyphenethyl)amino]-2-hydroxypropoxy}-3-(3,4-dimethoxyphenyl)-4H-chromen-4-one] returned a melting point of 134 to 135 °C. For the same compound, the “anti-HCV activity compared with ribavirin (in words)” value in the series with HCV replication (three days) was “more active than ribavirin”. In the series with HCV replication (CC50/EC50), the “SI (selectivity index, CC50/EC50)” value worked out at 21.08. For the same compound, the EC50 with HCV replication (Hepatitis C virus, Ava5, 72 h, treated for three days, firefly luciferase assay, read-out: EC50 (concentration resulting in a 50% inhibition in virus production / HCV replication)) was 6.53 ± 0.57 µM. The “anti-HCV activity relative to ribavirin” value in the series on HCV replication (ratio of EC50 values) is given as “approximately 2 fold”. Besides, in series [1], the CC50 at 72 h amounted to 138 ± 6.91 µM. Besides, the “cell cytotoxicity at the antiviral test concentrations” value with ava-5 cells (Ava5 cells, 2.5-20 μM, 3 days) is given as “without cell cytotoxicity”. Also, the “cytotoxicity compared with ribavirin (in words)” value with ava-5 cells (Ava-5 cells) is “less cytotoxic than ribavirin”. Further, the “HCV RNA replication / expression” value in the series with HCV RNA is “dose-dependently reduced; also recorded: inhibit the HCV RNA expression in Ava5 cells in a dose-dependent manner”. Besides, the HCV protein synthesis result in series [2] is listed as “dose-dependently reduced”. Besides, the HO-1 protein level entry with HO-1 protein expression is on record as “could induce HO-1 protein level”. Besides, the ARE-mediated luciferase activity entry in series [3] is given as “increased ARE-mediated luciferase activity”.
